Source: US6737383B1, “Herbicidal oxadiazolidines” (priority 1999, dated 2004)

What was measured:
smallflower flatsedge = test: Test B flood test smallflower flatsedge; format: in vivo, Cyperus difformis
Outline: (§1)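 Flood test on plants grown to the 2-leaf stage; treated plants kept in greenhouse twelve to sixteen days, then visually rated against controls on a 0 (no effect) to 10 (complete control) scale.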

crabgrass = test: Test B pre/postemergence crabgrass; format: in vivo, Digitaria sanguinalis
Outline: (§2)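 Response is a visual 0-to-10 score relative to untreated plants, where 0 means no effect and 10 means complete control, taken twelve to sixteen days after application. Treatments went onto soil at planting and onto foliage of 1- to 4-leaf plants, using a surfactant-containing non-phytotoxic solvent.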

wheat = test: Test B pre/postemergence wheat; format: in vivo, Triticum aestivum; conditions: for Plant response rating, Wheat: Rate 250 g/ha
Outline: as §2

rape = test: Test B pre/postemergence rape; format: in vivo, Brassica napus
Outline: as §2

velvetleaf = test: Test B pre/postemergence velvetleaf; format: in vivo, Abutilon theophrasti; conditions: for Plant response rating, Velvetleaf: Rate 250 g/ha
Outline: as §2

bedstraw = test: Test B pre/postemergence bedstraw; format: in vivo, Galium aparine
Outline: as §2

corn = test: Test B pre/postemergence corn; format: in vivo, Zea mays
Outline: as §2

duck salad = test: Test B flood test duck salad; format: in vivo, Heteranthera limosa
Outline: as §1

purple nutsedge = test: Test B pre/postemergence purple nutsedge; format: in vivo, Cyperus rotundus
Outline: as §2

surinam grass = test: Test B pre/postemergence surinam grass; format: in vivo, Brachiaria decumbens
Outline: as §2

pigweed = test: Test B pre/postemergence pigweed; format: in vivo, Amaranthus retroflexus
Outline: as §2

sugar beet = test: Test B pre/postemergence sugar beet; format: in vivo, Beta vulgaris; conditions: for Plant response rating, Sugarbeets: Rate 250 g/ha
Outline: as §2

rice = test: Test B flood test rice; format: in vivo, Oryza sativa
Outline: as §1

wild oat = test: Test B pre/postemergence wild oat; format: in vivo, Avena fatua; conditions: for Plant response rating, Wild oats: Rate 250 g/ha
Outline: as §2

blackgrass = test: Test B pre/postemergence blackgrass; format: in vivo, Alopecurus myosuroides
Outline: as §2

soybean = test: Test B pre/postemergence soybean; format: in vivo, Glycine max
Outline: as §2

[1] = Postemergence (flood test species), Rate 125 g/ha, scale of 0 to 10 where 0 is no effect and 10 is complete control
[2] = Rate 62 g/ha, Postemergence section, flood test species, scale of 0 to 10 where 0 is no effect and 10 is complete control
[3] = Rate 250 g/ha, Postemergence (flood test), scale 0 to 10, 0 is no effect, 10 is complete control
[4] = Rate 250 g/ha, headed Pre-emergence (flood test species), scale 0 to 10 (0 no effect, 10 complete control)
[5] = Rate 500 g/ha, headed Pre-emergence (flood test species), scale 0 to 10 (0 no effect, 10 complete control)
[6] = Rate 500 g/ha, listed under Postemergence (flood test species), scale 0 to 10, 0 no effect, 10 complete control
[7] = Rate 2000 g/ha, Pre-emergence (as headed), scale 0 to 10
[8] = Postemergence, Rate 125 g/ha, scale of 0 to 10 where 0 is no effect and 10 is complete control
[9] = Postemergence, Rate 250 g/ha, scale 0 to 10, 0 no effect, 10 complete control
[10] = Preemergence, Rate 62 g/ha, scale 0 to 10 (0 no effect, 10 complete control)
[11] = Preemergence, Rate 125 g/ha, scale 0 to 10 (0 no effect, 10 complete control)
[12] = Preemergence, Rate 250 g/ha, scale of 0 to 10 where 0 is no effect and 10 is complete control
[13] = Preemergence, Rate 500 g/ha, scale 0 to 10 (0 no effect, 10 complete control)
[14] = Rate 62 g/ha, Postemergence, scale of 0 to 10 where 0 is no effect and 10 is complete control
[15] = Rate 500 g/ha, Postemergence, scale 0 to 10, 0 no effect, 10 complete control
[16] = Preemergence, Rate 125 g/ha, 0 is no effect, 10 is complete control
[17] = Preemergence, scale of 0 to 10 where 0 is no effect and 10 is complete control
[18] = Postemergence, scale 0 to 10, 0 is no effect, 10 is complete control
[19] = Postemergence, Rate 62 g/ha, scale 0 to 10, 0 is no effect, 10 is complete control
[20] = Rate 125 g/ha, Postemergence, scale 0 to 10, 0 no effect, 10 complete control
[21] = Rate 1000 g/ha, Pre-emergence (as headed), scale 0 to 10
[22] = Rate 250 g/ha, Postemergence, scale 0 to 10, 0 is no effect, 10 is complete control

CCn1c(=O)on(C(=O)N(c2ccc(F)cc2F)C(C)C)c1=O [Compound 116]
S. Flatsedge plant response rating (smallflower flatsedge; [1]): 0
S. Flatsedge plant response rating (smallflower flatsedge; Pre-emergence, Rate 1000 g/ha, scale 0 to 10 (0 no effect, 10 complete control)): 0
S. Flatsedge plant response rating (smallflower flatsedge; [2]): 0
Plant response rating, S. Flatsedge (smallflower flatsedge; [3]): 0
S. Flatsedge plant response rating (smallflower flatsedge; [4]): 0
Plant response rating, S. Flatsedge (smallflower flatsedge; [5]): 0
S. Flatsedge plant response rating (smallflower flatsedge; [6]): 0
S. Flatsedge plant response rating (smallflower flatsedge; [7]): 9
Crabgrass plant response rating (crabgrass; [8]): 9
Crabgrass plant response rating (crabgrass; [9]): 9
Crabgrass plant response rating (crabgrass; [10]): 8
Plant response rating, Crabgrass (crabgrass; [11]): 10
Plant response rating, Crabgrass (crabgrass; [12]): 10
Crabgrass plant response rating (crabgrass; [13]): 10
Crabgrass plant response rating (crabgrass; [14]): 9
Crabgrass plant response rating (crabgrass; [15]): 9
Wheat plant response rating (wheat; [8]): 6
Wheat plant response rating (wheat; [10]): 3
Wheat plant response rating (0 to 10 scale) (wheat; [16]): 5
Plant response rating, Wheat (wheat; [17]): 8
Wheat plant response rating (wheat; [13]): 8
Wheat plant response rating (wheat; [14]): 0
Plant response rating, Wheat (wheat; [18]): 7
Wheat plant response rating (wheat; [15]): 8
Rape plant response rating (rape; [8]): 0
Rape plant response rating (rape; [9]): 8
Rape plant response rating (rape; [10]): 6
Plant response rating, Rape (rape; [11]): 9
Plant response rating, Rape (rape; [12]): 10
Rape plant response rating (rape; [13]): 10
Rape plant response rating (rape; [14]): 0
Rape plant response rating (rape; [15]): 9
Velvetleaf plant response rating (velvetleaf; [8]): 4
Velvetleaf plant response rating (velvetleaf; [10]): 8
Velvetleaf plant response rating (0 to 10 scale) (velvetleaf; [16]): 9
Plant response rating, Velvetleaf (velvetleaf; [17]): 10
Velvetleaf plant response rating (velvetleaf; [13]): 10
Velvetleaf plant response rating (velvetleaf; [14]): 4
Plant response rating, Velvetleaf (velvetleaf; [18]): 7
Velvetleaf plant response rating (velvetleaf; [15]): 8
Bedstraw plant response rating (bedstraw; [19]): 0
Bedstraw plant response rating (bedstraw; [9]): 9
Bedstraw plant response rating (bedstraw; [10]): 2
Plant response rating, Bedstraw (bedstraw; [11]): 8
Plant response rating, Bedstraw (bedstraw; [12]): 9
Bedstraw plant response rating (bedstraw; [13]): 9
Bedstraw plant response rating (bedstraw; [20]): 6
Corn plant response rating (corn; [8]): 0
Corn plant response rating (corn; [9]): 2
Corn plant response rating (corn; [10]): 0
Plant response rating, Corn (corn; [11]): 2
Plant response rating, Corn (corn; [12]): 6
Corn plant response rating (corn; [13]): 9
Corn plant response rating (corn; [14]): 0
Corn plant response rating (corn; [15]): 7
Ducksalad plant response rating (duck salad; [1]): 0
Ducksalad plant response rating (duck salad; [2]): 0
Ducksalad plant response rating (duck salad; [4]): 0
Plant response rating, Ducksalad (duck salad; [5]): 0
Ducksalad plant response rating (duck salad; [6]): 0
Ducksalad plant response rating (duck salad; [21]): 1
Ducksalad plant response rating (duck salad; [7]): 8
Ducksalad plant response rating (duck salad; flood test, listed under Postemergence, Rate 250 g/ha, scale 0 to 10, 0 no effect, 10 complete control): 0
Nutsedge plant response rating (purple nutsedge; [8]): 7
Nutsedge plant response rating (purple nutsedge; [9]): 8
Nutsedge plant response rating (purple nutsedge; [10]): 0
Plant response rating, Nutsedge (purple nutsedge; [11]): 0
Plant response rating, Nutsedge (purple nutsedge; [12]): 0
Nutsedge plant response rating (purple nutsedge; [13]): 0
Nutsedge plant response rating (purple nutsedge; [14]): 5
Nutsedge plant response rating (purple nutsedge; [15]): 9
B. signalgrass plant response rating (surinam grass; [19]): 8
B. signalgrass plant response rating (surinam grass; [9]): 9
B. signalgrass plant response rating (surinam grass; [10]): 4
Plant response rating, B. signalgrass (surinam grass; [11]): 8
Plant response rating, B. signalgrass (surinam grass; [12]): 10
B. signalgrass plant response rating (surinam grass; [13]): 10
B. signalgrass plant response rating (surinam grass; [20]): 9
B. signalgrass plant response rating (surinam grass; Rate 500 g/ha, Postemergence, scale of 0 to 10 where 0 is no effect and 10 is complete control): 9
Redroot pigweed plant response rating (pigweed; [8]): 0
Redroot pigweed plant response rating (pigweed; [10]): 10
Plant response rating, Redroot pigweed (pigweed; [11]): 10
Plant response rating, Redroot pigweed (pigweed; [12]): 10
Redroot pigweed plant response rating (pigweed; [13]): 10
Redroot pigweed plant response rating (pigweed; [14]): 0
Plant response rating, Redroot pigweed (pigweed; [22]): 8
Redroot pigweed plant response rating (pigweed; [15]): 8
Sugarbeets plant response rating (sugar beet; [8]): 3
Sugarbeets plant response rating (sugar beet; [10]): 9
Sugarbeets plant response rating (0 to 10 scale) (sugar beet; [16]): 10
Plant response rating, Sugarbeets (sugar beet; [17]): 10
Sugarbeets plant response rating (sugar beet; [13]): 10
Sugarbeets plant response rating (sugar beet; [14]): 2
Plant response rating, Sugarbeets (sugar beet; [18]): 8
Sugarbeets plant response rating (sugar beet; [15]): 8
Rice plant response rating (rice; [1]): 0
Rice plant response rating (rice; [2]): 0
Plant response rating, Rice (rice; [3]): 0
Rice plant response rating (rice; [4]): 0
Plant response rating, Rice (rice; [5]): 0
Rice plant response rating (rice; [6]): 0
Rice plant response rating (rice; [21]): 0
Rice plant response rating (rice; [7]): 4
Wild oats plant response rating (wild oat; [8]): 7
Wild oats plant response rating (wild oat; [10]): 7
Wild oats plant response rating (0 to 10 scale) (wild oat; [16]): 7
Plant response rating, Wild oats (wild oat; [17]): 10
Wild oats plant response rating (wild oat; [13]): 10
Wild oats plant response rating (wild oat; [14]): 3
Plant response rating, Wild oats (wild oat; [18]): 7
Wild oats plant response rating (wild oat; [15]): 8
Blackgrass plant response rating (blackgrass; [8]): 9
Blackgrass plant response rating (blackgrass; [9]): 9
Blackgrass plant response rating (blackgrass; [10]): 9
Plant response rating, Blackgrass (blackgrass; [11]): 9
Plant response rating, Blackgrass (blackgrass; [12]): 10
Blackgrass plant response rating (blackgrass; [13]): 10
Blackgrass plant response rating (blackgrass; [14]): 9
Blackgrass plant response rating (blackgrass; [15]): 9
Soybean plant response rating (soybean; [8]): 6
Soybean plant response rating (soybean; [10]): 0
Plant response rating, Soybean (soybean; [11]): 7
Plant response rating, Soybean (soybean; [12]): 9
Soybean plant response rating (soybean; [13]): 9
Soybean plant response rating (soybean; [14]): 3
Plant response rating, Soybean (soybean; [22]): 6
Soybean plant response rating (soybean; [15]): 8
